Literature values, collected in US8853187B2, “Composition comprising bisphosphonates for prevention and/or treatment of metabolic diseases of bones, process for preparing such composition and use thereof” (Gador S.A., priority 2001, dated 2014).

Settings: ranking within the group of bisphosphonates, in words

solubility relative to other bisphosphonates: most soluble
Structure (SMILES): CN(C)CCC(O)(P(=O)(O)O)P(=O)(O)O [Olpadronate]
